Measured values as given in PubChem BioAssay AID328 (DTP/NCI, 2004).
“And” between values parts separate entries of the source, which are not always exact repeats. Equal values may be shown once. Toxic doses and inconclusive results are not listed. The calls were made as follows: active = survival T/C of 150% or more; inactive = T/C below 125% in these data.

Tested on: BDF1 mice, P388 leukemia ip, median survival T/C
Experiment: NCI In Vivo Anticancer Drug Screen. Data for tumor model P388 Leukemia (intraperitoneal) in B6D2F1 (BDF1) mice
Conditions: endpoint: median survival time, higher = longer survival
Method in brief: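 Read-out is survival of treated animals expressed relative to the vehicle group, as a T/C ratio.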

[1] = dose: 50.0 mg/kg/injection, schedule: Q01DX009 (ip), vehicle: Klucel (hydroxypropylcellulose) (HPC)
[2] = dose: 50.0 mg/kg/injection, schedule: Q04DX003 (ip), vehicle: Klucel (hydroxypropylcellulose) (HPC)
[3] = dose: 100.0 mg/kg/injection, schedule: Q01DX009 (ip), vehicle: Klucel (hydroxypropylcellulose) (HPC)
[4] = dose: 100.0 mg/kg/injection, schedule: Q04DX003 (ip), vehicle: Klucel (hydroxypropylcellulose) (HPC)
[5] = dose: 200.0 mg/kg/injection, schedule: Q01DX009 (ip), vehicle: Klucel (hydroxypropylcellulose) (HPC)
[6] = dose: 100.0 mg/kg/injection, schedule: Q01DX009 (ip), vehicle: saline with Tween-80
[7] = dose: 200.0 mg/kg/injection, schedule: Q01DX009 (ip), vehicle: saline with Tween-80
[8] = dose: 400.0 mg/kg/injection, schedule: Q01DX009 (ip), vehicle: saline with Tween-80
[9] = dose: 50.0 mg/kg/injection, schedule: Q01DX009 (ip), vehicle: saline with Tween-80
[10] = dose: 25.0 mg/kg/injection, schedule: Q01DX009 (ip), vehicle: Klucel (hydroxypropylcellulose) (HPC)

Measured: T/C

C[C@@H]1C[C@H]2C(=CC1=O)CC[C@@H]1[C@@H]2CC[C@@]2(C)[C@H]1CC[C@]2(C)O
inactive: [1] 95 % of control | [2] 91 % of control | [3] 87 % of control | [4] 91 % of control and 103 % of control | [5] 108 % of control | dose: 200.0 mg/kg/injection, schedule: Q04DX003 (ip), vehicle: Klucel (hydroxypropylcellulose) (HPC) 96 % of control and 100 % of control

C=CCn1c(=S)[nH]c2ccccc2c1=O
inactive: [6] 100 % of control | [7] 95 % of control | [8] 100 % of control

COc1cc2c(cc1OC)[C@]13C[C@H](OC)CC=C1CCN3CCC2
inactive: dose: 10.0 mg/kg/injection, schedule: Q01DX009 (ip), vehicle: alcohol 86 % of control | dose: 20.0 mg/kg/injection, schedule: Q01DX009 (ip), vehicle: alcohol 100 % of control | dose: 40.0 mg/kg/injection, schedule: Q01DX009 (ip), vehicle: alcohol 100 % of control | dose: 80.0 mg/kg/injection, schedule: Q01DX009 (ip), vehicle: alcohol 95 % of control

O=C1Nc2ccc(Br)cc2C1=Nc1ccc2c(c1)OCO2
inactive: [9] 113 % of control | [6] 111 % of control | [7] 108 % of control | [8] 111 % of control

CCOC(=O)C(CCCO)C(=O)OCC
inactive: dose: 50.0 mg/kg/injection, schedule: Q01DX001 (ip), vehicle: saline with Tween-80 115 % of control | dose: 100.0 mg/kg/injection, schedule: Q01DX001 (ip), vehicle: saline with Tween-80 100 % of control | dose: 200.0 mg/kg/injection, schedule: Q01DX001 (ip), vehicle: saline with Tween-80 110 % of control

O=C(c1c(F)c(F)c(F)c(F)c1F)N1CC1
inactive: dose: 25.0 mg/kg/injection, schedule: Q01DX009 (ip), vehicle: water 106 % of control | dose: 25.0 mg/kg/injection, schedule: Q04DX003 (ip), vehicle: water 104 % of control | dose: 50.0 mg/kg/injection, schedule: Q01DX009 (ip), vehicle: water 111 % of control | dose: 50.0 mg/kg/injection, schedule: Q04DX003 (ip), vehicle: water 91 % of control | dose: 100.0 mg/kg/injection, schedule: Q01DX009 (ip), vehicle: water 111 % of control | dose: 100.0 mg/kg/injection, schedule: Q04DX003 (ip), vehicle: water 106 % of control | dose: 200.0 mg/kg/injection, schedule: Q01DX009 (ip), vehicle: water 97 % of control | dose: 200.0 mg/kg/injection, schedule: Q04DX003 (ip), vehicle: water 106 % of control | dose: 400.0 mg/kg/injection, schedule: Q01DX009 (ip), vehicle: water 100 % of control | dose: 400.0 mg/kg/injection, schedule: Q04DX003 (ip), vehicle: water 100 % of control

CCC12C=CCN3CCC4(c5cc(C(CN6CCCCC6)c6cn(C)c7ccccc67)c(OC)cc5N(C)C4C(O)(C(=O)OC)C1OC(C)=O)C32 (stereo not drawn)
inactive: dose: 4.0 mg/kg/injection, schedule: Q01DX009 (ip), vehicle: saline 104 % of control | dose: 8.0 mg/kg/injection, schedule: Q01DX009 (ip), vehicle: saline 98 % of control | dose: 16.0 mg/kg/injection, schedule: Q01DX009 (ip), vehicle: saline 98 % of control | dose: 32.0 mg/kg/injection, schedule: Q01DX009 (ip), vehicle: saline 93 % of control and 116 % of control

[Cl][Pt+2][Cl].[NH-]C1CCC1.[NH-]C1CCC1
active: dose: 12.5 mg/kg/injection, schedule: Q01DX009 (ip), vehicle: Klucel (hydroxypropylcellulose) (HPC) 173 % of control and 201 % of control | [10] 195 % of control and 213 % of control
inactive: [1] 94 % of control and 115 % of control

CCCC(C)(C)c1cc(C(C)C)cc(C(C)(C)CCC)c1O
inactive: dose: 12.5 mg/kg/injection, schedule: Q01DX009 (ip), vehicle: other 112 % of control | dose: 25.0 mg/kg/injection, schedule: Q01DX009 (ip), vehicle: other 118 % of control | dose: 50.0 mg/kg/injection, schedule: Q01DX009 (ip), vehicle: other 97 % of control

O=C(NC(=O)OCCCCCl)Nc1cccc(Cl)c1
inactive: [9] 100 % of control | [6] 98 % of control | [7] 88 % of control

O=C(/C(=C/c1ccccc1)CN1CCOCC1)c1ccccc1
inactive: dose: 25.0 mg/kg/injection, schedule: Q04DX003 (ip), vehicle: Klucel (hydroxypropylcellulose) (HPC) 91 % of control | [2] 95 % of control | [4] 91 % of control

CC1(C)C(=O)N(Cl)C(=O)N1Cl
active: dose: 25.0 mg/kg/injection, schedule: Q01DX009 (ip), vehicle: saline with Tween-80 263 % of control
inactive: dose: 6.25 mg/kg/injection, schedule: Q01DX009 (ip), vehicle: saline with Tween-80 109 % of control | dose: 12.5 mg/kg/injection, schedule: Q01DX009 (ip), vehicle: saline with Tween-80 113 % of control

COc1cccc(NC(=O)N2CCCCC2)c1
inactive: [10] 111 % of control | [1] 111 % of control | [3] 114 % of control | [5] 114 % of control
